{
  "source": "paper PMC4700476",
  "about": "“Differential regulation by AMP and ADP of AMPK complexes containing different γ subunit isoforms” (Biochemical Journal, 2016)",
  "key": {"[1]": {"biological_target": "T1, AMPK γ2 complex (FLAG-tagged human γ2) (Homo sapiens, UniProt Q13131+Q9UGJ0)", "T1 construct": "would have predominantly been the α1β2γ1, α1β2γ2 or α1β2γ3 complexes; expressed in transfected cells; host or cells: HEK-293 (Flp recombinase target site, tetracycline-inducible); anti-FLAG immunoprecipitate", "T1 sequence (Q9UGJ0 whole entry)": "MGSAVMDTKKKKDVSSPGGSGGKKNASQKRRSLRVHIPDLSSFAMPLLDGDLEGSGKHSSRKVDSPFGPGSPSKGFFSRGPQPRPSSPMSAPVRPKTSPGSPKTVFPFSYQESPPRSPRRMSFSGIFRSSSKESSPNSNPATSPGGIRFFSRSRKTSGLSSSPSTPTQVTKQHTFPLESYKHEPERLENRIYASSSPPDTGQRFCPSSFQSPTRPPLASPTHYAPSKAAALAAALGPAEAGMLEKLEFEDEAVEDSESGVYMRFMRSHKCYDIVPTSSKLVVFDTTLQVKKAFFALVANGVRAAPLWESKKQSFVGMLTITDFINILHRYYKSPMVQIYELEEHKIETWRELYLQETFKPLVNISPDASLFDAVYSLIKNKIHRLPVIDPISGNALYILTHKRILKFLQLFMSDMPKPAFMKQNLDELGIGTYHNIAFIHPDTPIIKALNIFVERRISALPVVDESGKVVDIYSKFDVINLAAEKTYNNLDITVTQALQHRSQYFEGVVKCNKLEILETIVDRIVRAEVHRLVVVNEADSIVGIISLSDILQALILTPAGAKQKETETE", "T1 sequence (Q13131 whole entry)": "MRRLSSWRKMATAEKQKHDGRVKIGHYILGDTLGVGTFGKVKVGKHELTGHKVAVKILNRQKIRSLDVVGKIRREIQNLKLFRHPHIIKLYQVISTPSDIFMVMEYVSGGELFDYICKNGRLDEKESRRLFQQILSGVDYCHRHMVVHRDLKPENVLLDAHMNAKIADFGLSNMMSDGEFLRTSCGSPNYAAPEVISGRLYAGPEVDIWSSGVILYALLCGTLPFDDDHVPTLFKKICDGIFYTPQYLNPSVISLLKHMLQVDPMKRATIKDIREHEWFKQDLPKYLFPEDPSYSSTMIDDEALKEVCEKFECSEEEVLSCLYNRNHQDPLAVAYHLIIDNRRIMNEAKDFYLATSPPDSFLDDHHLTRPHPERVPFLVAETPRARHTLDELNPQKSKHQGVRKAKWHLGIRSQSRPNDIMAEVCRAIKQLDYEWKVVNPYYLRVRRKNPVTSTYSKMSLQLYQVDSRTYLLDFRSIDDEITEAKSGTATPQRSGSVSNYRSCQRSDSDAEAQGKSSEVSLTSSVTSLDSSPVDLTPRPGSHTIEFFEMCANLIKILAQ", "T1 sequence (O43741 whole entry partner)": "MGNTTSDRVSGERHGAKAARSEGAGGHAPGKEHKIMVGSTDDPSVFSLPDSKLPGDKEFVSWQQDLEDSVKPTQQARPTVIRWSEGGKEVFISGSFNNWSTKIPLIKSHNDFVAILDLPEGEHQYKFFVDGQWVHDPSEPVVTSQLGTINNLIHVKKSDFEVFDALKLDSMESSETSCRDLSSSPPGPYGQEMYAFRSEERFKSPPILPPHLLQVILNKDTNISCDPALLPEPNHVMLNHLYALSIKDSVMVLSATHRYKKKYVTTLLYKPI", "assay": "Protection against inactivation and Thr172 dephosphorylation by PP2Cα", "format": "biochemical", "details": "5 mM ATP, read-out: half-maximal effect for protection against inactivation by PP2Cα", "description": "(§1) AMPK was activated by incubating the cells in phenformin (10 mM) for 60 min prior to cell lysis. Cell lysates (225, 225 and 455 μg of lysate protein for γ1, γ2 and γ3 respectively) were incubated with 100 μl of EZview Red anti-FLAG M2 affinity gel beads at 4°C for 2 h on a roller mixer. The beads were washed twice with 1 ml of immunoprecipitation buffer and twice with 1 ml of Hepes assay buffer, resuspended in 1 ml of assay buffer and divided into 100-μl aliquots. The beads were recovered by centrifugation and 75 μl of the supernatant removed. In a final volume of 50 μl, AMP, ADP (as specified), ATP (5 mM) and PP2Cα (1.5 μg) were added and the reaction was started by adding MgCl2 (9.8 mM) to activate PP2Cα; the reactions were then conducted in a shaking incubator at 30°C for 10 min. They were stopped by washing the beads three times in assay buffer, resuspending them in 400 μl of assay buffer and dividing them into aliquots for kinase assays and analysis by Western blotting.\n(§2) Finally, we addressed the effects of AMP and ADP on the dephosphorylation of γ1, γ2 and γ3 complexes by the protein phosphatase PP2Cα. Cells expressing γ1, γ2 or γ3 complexes were treated with phenformin to promote Thr^172 phosphorylation, the complexes were then isolated by immunoprecipitation and equal amounts (based on anti-FLAG blots) were treated with a limiting quantity of PP2Cα in the presence of increasing concentrations of AMP or ADP. As before, in order to simulate physiological conditions, these assays were performed in the presence of 5 mM ATP. […] The similar effects of AMP on all three complexes were confirmed by Western blot analysis using anti-pThr^172 antibodies (lower panel). The effects of ADP are shown in Figure 7(B); similar to results previously obtained with rat liver AMPK [28]\n(§3) Figure 7 Effect of AMP and ADP on protection against Thr^172 dephosphorylation, measured at 5 mM ATP (A) […], -γ2 or -γ3 complexes were immunoprecipitated from cells treated with phenformin to cause maximal Thr^172 phosphorylation. The IPs were then incubated for 10 min with the protein phosphatase PP2Cα in the presence of 5 mM ATP and various concentrations of AMP. Inactivation was assessed by kinase assays (top panel) and Thr^172 dephosphorylation by Western blot (bottom panels). Results (means ± S.E.M., n=2) in the top panel are shown as percentage protection, which is the inactivation compared with control (without AMP), expressed as a percentage of the inactivation compared with control at the highest concentration of AMP used. Results were fitted to the equation Y=100 × X/(EC50+X) where Y is the percentage protection, X is the concentration of AMP, and EC50 is the concentration of AMP causing half-maximal protection. The continuous lines are the curves generated using this equation using the best-fit parameters quoted in the text. […] (B) As (A), but varying ADP in place of AMP."}, "[2]": {"biological_target": "T2, AMPK γ3 complex (FLAG-tagged human γ3) (Homo sapiens, UniProt Q13131+Q9UGI9)", "T2 construct": "would have predominantly been the α1β2γ1, α1β2γ2 or α1β2γ3 complexes; expressed in transfected cells; host or cells: HEK-293 (Flp recombinase target site, tetracycline-inducible); anti-FLAG immunoprecipitate", "T2 sequence (Q9UGI9 whole entry)": "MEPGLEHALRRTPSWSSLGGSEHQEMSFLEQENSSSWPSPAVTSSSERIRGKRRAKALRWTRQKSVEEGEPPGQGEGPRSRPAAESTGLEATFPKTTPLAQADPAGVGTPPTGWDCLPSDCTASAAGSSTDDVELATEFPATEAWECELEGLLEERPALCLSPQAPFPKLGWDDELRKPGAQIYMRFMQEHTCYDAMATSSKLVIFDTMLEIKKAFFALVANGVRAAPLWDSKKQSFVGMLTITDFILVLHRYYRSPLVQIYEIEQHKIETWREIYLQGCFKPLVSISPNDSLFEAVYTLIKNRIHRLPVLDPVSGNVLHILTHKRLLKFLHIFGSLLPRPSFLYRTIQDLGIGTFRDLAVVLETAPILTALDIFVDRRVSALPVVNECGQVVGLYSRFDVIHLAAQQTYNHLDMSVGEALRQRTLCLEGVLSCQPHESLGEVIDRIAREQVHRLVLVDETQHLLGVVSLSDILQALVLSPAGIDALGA", "T2 sequence (Q13131 whole entry)": "as the sequence (Q13131 whole entry) above", "T2 sequence (O43741 whole entry partner)": "as the sequence (O43741 whole entry partner) above", "assay": "Protection against inactivation and Thr172 dephosphorylation by PP2Cα", "format": "biochemical", "details": "5 mM ATP, read-out: half-maximal effect for protection against inactivation by PP2Cα", "description": "as §1, §2, §3"}, "[3]": {"biological_target": "T3, AMPK γ1 complex (FLAG-tagged human γ1) (Homo sapiens, UniProt P54619+Q13131)", "T3 construct": "would have predominantly been the α1β2γ1, α1β2γ2 or α1β2γ3 complexes; expressed in transfected cells; host or cells: HEK-293 (Flp recombinase target site, tetracycline-inducible); anti-FLAG immunoprecipitate", "T3 sequence (P54619 whole entry)": "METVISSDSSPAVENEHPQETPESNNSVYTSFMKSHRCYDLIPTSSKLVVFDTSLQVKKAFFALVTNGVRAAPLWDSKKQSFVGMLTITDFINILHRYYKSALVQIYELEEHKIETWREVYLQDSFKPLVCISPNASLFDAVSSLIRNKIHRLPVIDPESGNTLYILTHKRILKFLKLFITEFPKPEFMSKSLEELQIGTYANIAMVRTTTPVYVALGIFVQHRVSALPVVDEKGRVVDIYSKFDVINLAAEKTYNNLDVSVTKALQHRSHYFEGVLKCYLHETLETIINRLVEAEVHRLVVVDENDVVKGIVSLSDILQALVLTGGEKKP", "T3 sequence (Q13131 whole entry)": "as the sequence (Q13131 whole entry) above", "T3 sequence (O43741 whole entry partner)": "as the sequence (O43741 whole entry partner) above", "assay": "Protection against inactivation and Thr172 dephosphorylation by PP2Cα", "format": "biochemical", "details": "5 mM ATP, read-out: half-maximal effect for protection against inactivation by PP2Cα", "description": "as §1, §2, §3"}, "[4]": {"biological_target": "T4, AMPK γ2 complex (dephosphorylated, FLAG-tagged human γ2) (Homo sapiens, UniProt Q13131+Q9UGJ0)", "T4 construct": "would have predominantly been the α1β2γ1, α1β2γ2 or α1β2γ3 complexes; expressed in transfected cells; host or cells: HEK-293 (Flp recombinase target site, tetracycline-inducible); anti-FLAG immunoprecipitate", "T4 sequence (Q9UGJ0 whole entry)": "as the sequence (Q9UGJ0 whole entry) above", "T4 sequence (Q13131 whole entry)": "as the sequence (Q13131 whole entry) above", "T4 sequence (O43741 whole entry partner)": "as the sequence (O43741 whole entry partner) above", "assay": "Promotion of LKB1-dependent activation and Thr172 phosphorylation", "format": "biochemical", "details": "ADP 1 mM, 5 mM ATP", "description": "(§4) Cell lysates (140, 500 and 2000 μg of lysate protein for γ1, γ2 and γ3 respectively) were incubated with 100 μl of EZview Red anti-FLAG M2 affinity gel, immunoprecipitated and washed as described previously. The IPs were resuspended in 100 μl of Hepes assay buffer and incubated in an orbital incubator with PP1γ (55 μg in 10 μl) in Hepes assay buffer for 30 min at 30°C. The dephosphorylation reactions were stopped by washing the IPs three times in Hepes assay buffer. The precipitates were then resuspended in 1 ml of Hepes assay buffer and divided into 100-μl aliquots. After centrifugation, 75 μl of each supernatant was removed, 5 μl of okadaic acid (final concentration 25 μM) was added and incubation continued for 5 min at 30°C. After this, AMP or ADP and LKB1 were added as specified and the reaction started by adding a mixture of MgCl2 (final concentration 9.8 mM) and ATP (final concentration 5 mM). Incubation was for 10 min at 30°C, after which the reactions were stopped by washing the IPs three times in Hepes assay buffer. They were resuspended in 400 μl of assay buffer and split for assays and analysis by Western blotting.\n(§5) We next tested whether AMP promoted Thr^172 phosphorylation by LKB1, using complexes containing γ1, γ2 or γ3 expressed in HEK-293 cells and isolated using anti-FLAG antibody. The IPs were treated with the protein phosphatase-1 catalytic subunit (PP1γ) to remove phosphate from Thr^172, were washed to remove PP1γ, and okadaic acid was added to block the activity of any residual phosphatase. They were then treated with limiting quantities of LKB1 in the presence of 5 mM ATP (to mimic physiological conditions), with or without 1 mM AMP.\n(§6) Figure 5 Effect of AMP on activation and Thr^172 phosphorylation of AMPK-γ isoforms induced by upstream kinases (A) Effect of a limiting quantity of LKB1, with or without AMP (1 mM), on AMPK activity. Anti-FLAG IPs from AMPK-γ1-, -γ2- or -γ3-expressing cells were treated with PP1γ to bring about complete dephosphorylation of Thr^172. PP1γ was removed by washing and okadaic acid was added to ensure complete inhibition of any residual phosphatase. The IPs were then incubated for 10 min with 5 mM ATP with or without LKB1 (1 μg) and with or without 1 mM AMP. […] (B) Effect of different concentrations of AMP on activation and Thr^172 phosphorylation of the AMPK-γ1 complex. Experiment as in (A) except using various concentrations of AMP in the presence of 5 mM ATP. Results in the upper panel (means ± S.E.M., n=6) are expressed relative to the control without AMP. Results were fitted to the equation: Y=1+[(activation–1) × X]/(EC50+X), where Y is the relative activity, X is the concentration of AMP, activation is the predicted maximal activation, and EC50 is the concentration of AMP causing half-maximal activation. The continuous line is the curve generated using this equation with the parameters quoted in the text. […] (C) As (A), except that we also tested the effects of 1 mM AMP on activation by CaMKKβ as well as LKB1. The amount of CaMKKβ added (0.34 μg) yielded a similar limited degree of activation to LKB1.\n(§7) Figure 6 Effect of ADP on activation and Thr^172 phosphorylation of AMPK-γ isoforms induced by upstream kinases (A) Effect of AMP or ADP on activation of γ1-, γ2- or γ3-containing AMPK complexes induced by LKB1 in the presence of 5 mM ATP. Dephosphorylated AMPK complexes were generated as in Figure 3(A) and were incubated for 10 min with LKB1 with or without AMP (300 μM), ADP (1 mM) or the 5′-nucleotidase CD73 (0.86 μg). […] (B) Duplicate blots from the experiment shown in (A). (C) Effect of ADP on activation of AMPK-γ1 complexes by LKB1 in the presence of 5 mM ATP. The experiment was performed as in (A) except with various concentrations of ADP. Results (means ± S.E.M., n=3) are expressed relative to the basal activity in the absence of ADP and were fitted to the equation used for Figure 3(B). […]"}, "[5]": {"biological_target": "T5, AMPK γ1 complex (dephosphorylated, FLAG-tagged human γ1) (Homo sapiens, UniProt P54619+Q13131)", "T5 construct": "would have predominantly been the α1β2γ1, α1β2γ2 or α1β2γ3 complexes; expressed in transfected cells; host or cells: HEK-293 (Flp recombinase target site, tetracycline-inducible); anti-FLAG immunoprecipitate", "T5 sequence (P54619 whole entry)": "as the sequence (P54619 whole entry) above", "T5 sequence (Q13131 whole entry)": "as the sequence (Q13131 whole entry) above", "T5 sequence (O43741 whole entry partner)": "as the sequence (O43741 whole entry partner) above", "assay": "Promotion of LKB1-dependent activation and Thr172 phosphorylation", "format": "biochemical", "details": "5 mM ATP", "description": "as §4, §5, §6, §7"}, "[6]": {"test_system": "AMPK γ1 complex (dephosphorylated, FLAG-tagged human γ1)", "assay": "Promotion of LKB1-dependent activation and Thr172 phosphorylation", "format": "biochemical", "details": "5 mM ATP, imprecise estimate, read-out: IC50 for the inhibitory effect on activation by LKB1", "description": "as §4, §5, §6, §7"}, "[7]": {"biological_target": "T6, AMPK γ3 complex (dephosphorylated, FLAG-tagged human γ3) (Homo sapiens, UniProt Q13131+Q9UGI9)", "T6 construct": "would have predominantly been the α1β2γ1, α1β2γ2 or α1β2γ3 complexes; expressed in transfected cells; host or cells: HEK-293 (Flp recombinase target site, tetracycline-inducible); anti-FLAG immunoprecipitate", "T6 sequence (Q9UGI9 whole entry)": "as the sequence (Q9UGI9 whole entry) above", "T6 sequence (Q13131 whole entry)": "as the sequence (Q13131 whole entry) above", "T6 sequence (O43741 whole entry partner)": "as the sequence (O43741 whole entry partner) above", "assay": "Promotion of LKB1-dependent activation and Thr172 phosphorylation", "format": "biochemical", "details": "ADP 1 mM, 5 mM ATP", "description": "as §4, §5, §6, §7"}, "[8]": {"test_system": "γ1-containing AMPK complexes in HEK-293 cells expressing FLAG–γ1", "parameters": "method as in PMID 25695398", "details": "anti-FLAG IP; cited from earlier work"}, "[9]": {"test_system": "γ1-containing AMPK complexes in mouse skeletal muscle", "parameters": "method as in PMID 25695398", "details": "cited from earlier work"}, "[10]": {"test_system": "γ3-containing AMPK complexes in HEK-293 cells expressing FLAG–γ3", "parameters": "method as in PMID 25695398", "details": "anti-FLAG IP; cited from earlier work"}, "[11]": {"test_system": "γ3-containing AMPK complexes in mouse skeletal muscle", "parameters": "method as in PMID 25695398", "details": "cited from earlier work"}, "glucose uptake": {"test_system": "glucose uptake", "parameters": "method as in PMID 25695398", "details": "mouse skeletal muscle; cited from earlier work"}, "[12]": {"test_system": "γ2-containing AMPK complexes in HEK-293 cells expressing FLAG–γ2", "parameters": "method as in PMID 25695398", "details": "anti-FLAG IP; cited from earlier work"}},
  "note": "Where “and” joins values, the source holds several entries; their conditions need not be identical. Equal values may be shown once.",
  "data": [
    {"smiles": "Nc1ncnc2c1ncn2[C@@H]1O[C@H](COP(=O)(O)OP(=O)(O)O)[C@@H](O)[C@H]1O", "note": "[ADP]", "values": [
      {"measurement": "EC50", "setting": "[1]", "value": "180 ± 20", "unit": "µM"},
      {"measurement": "EC50", "setting": "[2]", "value": "980 ± 150", "unit": "µM"},
      {"measurement": "EC50", "setting": "[3]", "value": "910 ± 70", "unit": "µM"},
      {"measurement": "effect on activation by LKB1", "setting": "[4]", "value": "not significant"},
      {"measurement": "EC50", "setting": "[5]; imprecise estimate, read-out: EC50 for the activating effect on activation by LKB1", "value": "1800 µM and ≥ 1000 µM"},
      {"measurement": "stimulation of activation caused by Thr172 phosphorylation by LKB1", "setting": "[5]; ADP", "value": "~2", "unit": "fold"},
      {"measurement": "activation (best-fit, promotion of activation by LKB1)", "setting": "[5]; various ADP, constrained to be 5-fold or less, confidence limits extremely wide", "value": 5, "unit": "fold"},
      {"measurement": "IC50", "setting": "[6]", "value": "6800 ± 3100", "unit": "µM"},
      {"measurement": "effect on activation by LKB1", "setting": "[7]", "value": "not significant"}
    ]},
    {"smiles": "Cc1cc(-c2ccc(/C=C3/SC(=Nc4ccc(Cl)c(C(=O)O)c4)NC3=O)o2)c([N+](=O)[O-])cc1C", "note": "[PT-1]", "values": [
      {"measurement": "activation of complex in HEK-293 cells", "setting": "[8]", "value": "all three complexes were activated"},
      {"measurement": "activation of γ1-containing complexes", "setting": "[9]", "value": "activates"},
      {"measurement": "activation of complex in HEK-293 cells", "setting": "[10]", "value": "all three complexes were activated"},
      {"measurement": "activation of γ3-containing complexes", "setting": "[11]", "value": "not"},
      {"measurement": "glucose uptake", "setting": "glucose uptake", "value": "did not promote glucose uptake"},
      {"measurement": "activation of complex in HEK-293 cells", "setting": "[12]", "value": "all three complexes were activated"}
    ]}
  ]
}
